In test [1] the test system is G1 (DNA, G4) AGGGTTAGGGTTAGGGTTAGGG
In words: UV/Vis titration. The conditions noted are these: 10 mM Tris-HCl pH 7.04, 20 μM complex, apparent, per base pair.

The test system of test [2] is G2T1 (DNA, G4) AGGGTTAGGGTTAGGGTTAGGGTTAGGGTTAGGGTTAGGGTTAGGG
The test is described as follows: UV/Vis titration. Conditions: 10 mM Tris-HCl pH 7.04, 20 μM complex, apparent, per base pair.

The test system of test [3] is G1 (DNA, G4) AGGGTTAGGGTTAGGGTTAGGG
The test is described as follows: CD melting, 295 nm. Conditions: 100 mM NaCl, 10 mM Tris-HCl pH 7.04.

The test system of test [4] is G2T1 (DNA, G4) AGGGTTAGGGTTAGGGTTAGGGTTAGGGTTAGGGTTAGGGTTAGGG
In words: CD melting, 295 nm. Conditions: 100 mM NaCl, 10 mM Tris-HCl pH 7.04, 2.5 μM DNA.

Test [5] concerns G2T2 (DNA, G4) AGGGTTAGGGTTAGGGTTAGGGTTATTAGGGTTAGGGTTAGGGTTAGGG
In words: CD melting, 295 nm. Conditions: 100 mM NaCl, 10 mM Tris-HCl pH 7.04.

Test [6] concerns G2T4 (DNA, G4) AGGGTTAGGGTTAGGGTTAGGGTTATTATTATTAGGGTTAGGGTTAGGGTTAGGG
The test is described as follows: CD melting, 295 nm. Conditions: 100 mM NaCl, 10 mM Tris-HCl pH 7.04.

Test [7] concerns G2T6 (DNA, G4) AGGGTTAGGGTTAGGGTTAGGGTTATTATTATTATTATTAGGGTTAGGGTTAGGGTTAGGG
The test is described as follows: CD melting, 295 nm. The conditions noted are these: 100 mM NaCl, 10 mM Tris-HCl pH 7.04.

For test [8], the system named is G2T1 (DNA, G4) AGGGTTAGGGTTAGGGTTAGGGTTAGGGTTAGGGTTAGGGTTAGGG
In words: native gel electrophoresis. The conditions noted are these: 100 mM NaCl, 10 mM Tris-HCl pH 7.04, 8 μM DNA.

Test [9] has as its system Ap7 (DNA, G4, 2-aminopurine at 7) AGGGTTAGGGTTAGGGTTAGGGTTAGGGTTAGGGTTAGGGTTAGGG
The test is described as follows: 2-aminopurine fluorescence quenching. Conditions: 100 mM NaCl; 10 mM Tris-HCl pH 7.04, 25 °C; 5 μM DNA.

The test system of test [10] is Ap13 (DNA, G4, 2-aminopurine at 13) AGGGTTAGGGTTAGGGTTAGGGTTAGGGTTAGGGTTAGGGTTAGGG
In words: 2-aminopurine fluorescence quenching. The conditions noted are these: 100 mM NaCl; 10 mM Tris-HCl pH 7.04, 25 °C; 5 μM DNA.

The test system of test [11] is Ap37 (DNA, G4, 2-aminopurine at 37) AGGGTTAGGGTTAGGGTTAGGGTTAGGGTTAGGGTTAGGGTTAGGG
The test is described as follows: 2-aminopurine fluorescence quenching. The conditions noted are these: 100 mM NaCl; 10 mM Tris-HCl pH 7.04, 25 °C; 5 μM DNA.

Test [12] has as its system Ap7+Ap31 (DNA, G4, 2-aminopurine at 7 and 31) AGGGTTAGGGTTAGGGTTAGGGTTAGGGTTAGGGTTAGGGTTAGGG
The test is described as follows: 2-aminopurine fluorescence quenching. Conditions: 100 mM NaCl; 10 mM Tris-HCl pH 7.04, 25 °C; 5 μM DNA.

The test system of test [13] is Ap13+Ap37 (DNA, G4, 2-aminopurine at 13 and 37) AGGGTTAGGGTTAGGGTTAGGGTTAGGGTTAGGGTTAGGGTTAGGG
The test is described as follows: 2-aminopurine fluorescence quenching. The conditions noted are these: 100 mM NaCl; 10 mM Tris-HCl pH 7.04, 25 °C; 5 μM DNA.

The subject of test [14] is Ap31 (DNA, G4, 2-aminopurine at 31) AGGGTTAGGGTTAGGGTTAGGGTTAGGGTTAGGGTTAGGGTTAGGG
In words: 2-aminopurine fluorescence quenching and Job's plot. Conditions: 100 mM NaCl; 10 mM Tris-HCl pH 7.04, 25 °C; Job's plot at 3 μM total.

Test [15] relates to G1 (DNA, G4) AGGGTTAGGGTTAGGGTTAGGG
In words: native gel electrophoresis. Conditions: 100 mM NaCl; 10 mM Tris-HCl pH 7.04; 16 μM DNA, 32 μM complex.

Where [16] appears, read: 2:1 complex per G-quadruplex unit (4:1 per strand).

The structures appear in SMILES notation.

In the case of `[Ni+2].[Ni+2].[O-]c1cc(OCCN2CCCCC2)ccc1C=Nc1ccc(OCCOCCOCCOCCOc2ccc(N=Cc3ccc(OCCN4CCCCC4)cc3[O-])c(N=Cc3ccc(OCCN4CCCCC4)cc3[O-])c2)cc1N=Cc1ccc(OCCN2CCCCC2)cc1[O-]`, the Ka in [1] (100 mM KCl, 370 nm) is on record as 2.19±0.32×10^6 M^-1; in test [1] (100 mM NaCl, 370 nm), 1.05±0.20×10^6 M^−1; in test [2] (100 mM KCl, 370 nm), 1.37±0.25×10^7 M^-1; in [2] (100 mM NaCl, 370 nm) it was 3.15±0.42×10^7 M^−1. In addition, the “Δ T m” value in [3] (complex:DNA 1:1) is 2.0 °C; in [4] (5 μM complex (2:1)) it was 14.1 °C; in test [5] (complex:DNA 2:1) it was 11.9 °C; in [6] (complex:DNA 2:1), 8.1 °C; in test [7] (complex:DNA 2:1), 6.3 °C. Moreover, the binding result in test [8] (16 μM complex), in [9], in test [10], in test [11], in test [12] and in [13] was “yes” throughout. Further, in test [14], the binding result is “yes”.
On to `[Ni+2].[Ni+2].[O-]c1cc(OCCN2CCCCC2)ccc1C=Nc1ccc(OCCOCCOCCOc2ccc(N=Cc3ccc(OCCN4CCCCC4)cc3[O-])c(N=Cc3ccc(OCCN4CCCCC4)cc3[O-])c2)cc1N=Cc1ccc(OCCN2CCCCC2)cc1[O-]`, for which the Ka is 3.53±0.33×10^6 M^-1 in test [1] (100 mM KCl, 310 nm); 8.30±0.75×10^5 M^−1 in test [1] (100 mM NaCl, 310 nm); 2.52±0.24×10^6 M^-1 in test [2] (100 mM KCl, 310 nm); 2.06±0.40×10^6 M^−1 in test [2] (100 mM NaCl, 310 nm). This compound gave a Δ T m in [4] (5 μM complex (2:1)) of 8.4 °C.
As for `[Ni+2].[Ni+2].[O-]c1cc(OCCN2CCCCC2)ccc1C=Nc1ccc(OCCOCCOc2ccc(N=Cc3ccc(OCCN4CCCCC4)cc3[O-])c(N=Cc3ccc(OCCN4CCCCC4)cc3[O-])c2)cc1N=Cc1ccc(OCCN2CCCCC2)cc1[O-]`, the Ka in test [1] (100 mM KCl, 310 nm) is listed as 2.39±0.35×10^6 M^-1; in test [1] (100 mM NaCl, 370 nm) it was 1.27±0.24×10^6 M^−1; in test [2] (100 mM KCl, 310 nm), 1.19±0.16×10^6 M^-1; in test [2] (100 mM NaCl, 310 nm), 1.08±0.24×10^6 M^−1. The compound also yielded a Δ T m in test [4] (5 μM complex (2:1)) of 7.7 °C.
For the compound `[Ni+2].[O-]c1cc(OCCN2CCCCC2)ccc1C=Nc1ccccc1N=Cc1ccc(OCCN2CCCCC2)cc1[O-]`, the Ka is 1.15±0.18×10^7 M^-1 in test [1] (100 mM KCl, 370 nm); 4.62±0.64×10^6 M^−1 in [1] (100 mM NaCl, 370 nm); 1.50±0.22×10^7 M^-1 in test [2] (100 mM KCl, 310 nm); 2.34±0.32×10^7 M^−1 in test [2] (100 mM NaCl, 310 nm). In addition, the “Δ T m” value amounted to 13.4 °C in test [3] (complex:DNA 2:1); 20.8 °C in [4] (10 μM complex (4:1)); 25.1 °C in test [5] (setting [16]); 25.5 °C in test [6] (setting [16]); 23.5 °C in test [7] (setting [16]). Moreover, the binding entry in test [15] and in [8] (32 μM complex) was “yes” in each case.

For the origin of these results see article PMC5516229 (2017).
